Measured values: US6573279B1, “Isoquinoline derivatives or salts thereof” (priority 1999, dated 2003)
Where a name gives a salt, the structure may show the parent alone.

melting point	Compound
199 to 202 °C	COc1ccc(C(=O)NCCN2CCCC(C(=O)N3CCc4cc(OC)c(OC)cc4C3)C2)cc1OC (racemic) (as salt: HCl) [Example 11, (±)-N-{2-[3-(6,7-dimethoxy-1,2,3,4-tetrahydroisoquinoline-2-carbonyl)-piperidino]ethyl}-3,4-dimethoxybenzamide hydrochloride]
183 to 185 °C	COc1cc2c(cc1OC)CN(C(=O)C1CCCN(CCC(=O)Nc3ccc4ncsc4c3)C1)CC2 (centres unmarked) (as salt: HCl) [Example 14]
120 to 123 °C	COc1cccc(C(=O)NCCN2CCCC(C(=O)N3CCc4cc(OC)c(OC)cc4C3)C2)c1 (racemic) (as salt: oxalate) [Example 10, (±)-N-{2-[3-(6,7-dimethoxy-1,2,3,4-tetrahydroisoquinoline-2-carbonyl)-piperidino]ethyl}-3-methoxybenzamide oxalate]
211 to 213 °C	COc1ccc(NC(=O)CCN2CCCC(C(=O)N3CCc4cc(OC)c(OC)cc4C3)C2)cc1 (racemic) (as salt: HCl) [Example 4, (±)-3-[3-(6,7-dimethoxy-1,2,3,4-tetrahydroisoquinoline-2-carbonyl)piperidino]-N-(4-methoxyphenyl)propanamide hydrochloride]
197 to 199 °C	COc1cc2c(cc1OC)CN(C(=O)[C@@H]1CCCN(CCNC(=O)c3ccc(F)cc3)C1)CC2 (as salt: salt) (hydrate or solvate) [Example 49]
154 to 156 °C	COc1ccc(NC(=O)CCN2CCCC(C(=O)N3CCc4cc(OC)c(OC)cc4C3)C2)cc1OC (racemic) (as salt: HCl) [Example 1, (±)-3-[3-(6,7-dimethoxy-1,2,3,4-tetrahydroisoquinoline-2-carbonyl)piperidino]-N-(3,4-dimethoxyphenyl)propanamide hydrochloride]
125 to 128 °C	COc1cc(C(=O)NCCN2CCCC(C(=O)N3CCc4cc(OC)c(OC)cc4C3)C2)ccc1C (centres unmarked) (as salt: salt) [Example 28]
183 to 185 °C	COc1cc2c(cc1OC)CN(C(=O)C1CCCN(CCC(=O)Nc3ccc(C)c(F)c3)C1)CC2 (centres unmarked) (as salt: HCl) [Example 16]
137 to 141 °C	COc1cc2c(cc1OC)CN(C(=O)C1CCCN(CCNC(=O)c3ccc(F)cc3)C1)CC2 (centres unmarked) (as salt: salt) [Example 40]
166 to 168 °C	COc1cc2c(cc1OC)CN(C(=O)C1CCCN(CCC(=O)Nc3ccc(OC)c(C(F)(F)F)c3)C1)CC2 (centres unmarked) (as salt: HCl) [Example 13]
187 to 192 °C	COc1cc(NC(=O)CCN2CCCC(C(=O)N3CCc4cc(OC)c(OC)cc4C3)C2)cc(OC)c1 (racemic) (as salt: oxalate) [Example 3, (±)-3-[3-(6,7-dimethoxy-1,2,3,4-tetrahydroisoquinoline-2-carbonyl)piperidino]-N-(3,5-dimethoxyphenyl)propanamide 1/2 oxalate]
178 to 180 °C	COc1cc2c(cc1OC)CN(C(=O)C1CCCN(CCNC(=O)c3ccc(F)cc3F)C1)CC2 (centres unmarked) (as salt: salt) [Example 43]
166 to 167 °C	COc1cc(OC)cc(C(=O)NCCN2CCCC(C(=O)N3CCc4cc(OC)c(OC)cc4C3)C2)c1 (centres unmarked) (as salt: salt) [Example 42]
179 to 180 °C	COc1ccc2c(c1)CCN(C(=O)C1CCCN(CCC(=O)Nc3ccc4c(c3)OCO4)C1)C2 (centres unmarked) (as salt: salt) [Example 17]
164 to 166 °C	COc1cc2c(cc1OC)CN(C(=O)[C@H]1CCCN(CCC(=O)Nc3ccc4c(c3)OCO4)C1)CC2 (racemic) (as salt: fumarate) (hydrate or solvate) [Example 53, (±)-3-[(S)-3-(6,7-dimethoxy-1,2,3,4-tetrahydroisoquinoline-2-carbonyl)piperidino]-N-(3,4-methylenedioxyphenyl)propanamide fumarate]
182 to 185 °C	COc1ccc(NC(=O)CCN2CCCC(C(=O)N3CCc4cc(OC)c(OC)cc4C3)C2)cn1 (centres unmarked) (as salt: salt) [Example 21]

melting point	Compound
180 to 181 °C	COc1cc2c(cc1OC)CN(C(=O)C1CCCN(CCC(=O)Nc3ccc4c(c3)OCO4)C1)CCC2 (centres unmarked) (as salt: salt) [Example 20]
125 to 127 °C	CCOc1ccc(C(=O)NCCN2CCCC(C(=O)N3CCc4cc(OC)c(OC)cc4C3)C2)cc1 (centres unmarked) (as salt: salt) [Example 32]
159 to 160 °C	COc1cc2c(cc1OC)CN(C(=O)C1=CCCN(CCC(=O)Nc3ccc4c(c3)OCO4)C1)CC2 [Example 22]
111 to 112 °C	COc1cc2c(cc1OC)CN(C(=O)C1CCCN(CCNC(=O)c3ccc(F)c(Cl)c3)C1)CC2 (centres unmarked) (as salt: salt) [Example 45]
116 to 119 °C	COc1cc2c(cc1OC)CN(C(=O)C1CCCN(CCNC(=O)c3ccc(OC(C)C)cc3)C1)CC2 (centres unmarked) (as salt: salt) [Example 33]
155 to 164 °C	COc1ccc(NC(=O)CCN2CCC=C(C(=O)N3CCc4cc(OC)c(OC)cc4C3)C2)cc1 [Example 23]
182 to 185 °C	COc1cc2c(cc1OC)CN(C(=O)C1CCCN(CCNC(=O)c3ccc4c(c3)OCO4)C1)CC2 (racemic) (as salt: HCl) [Example 9, (±)-N-{2-[3-(6,7-dimethoxy-1,2,3,4-tetrahydrolsoquinoline-2-carbonyl)piperidino]ethyl}-3,4-methylenedioxybenzamide hydrochloride]
113 to 116 °C	COc1cc2c(cc1OC)CN(C(=O)C1CCCN(CCCC(=O)Nc3ccc4c(c3)OCO4)C1)CC2 (racemic) (as salt: oxalate) [Example 7, (±)-4-[3-(6,7-dimethoxy-1,2,3,4-tetrahydroisoquinoline-2-carbonoyl)piperidino]-N-(3,4-methylenedioxyphenyl)butanamide oxalate]
162 to 164 °C	COc1cc2c(cc1OC)CN(C(=O)C1=CCCN(CCNC(=O)c3ccc4c(c3)OCO4)C1)CC2 [Example 46]
181 to 185 °C	COc1cc2c(cc1OC)CN(C(=O)C1CCCN(CCC(=O)Nc3cccc(Cl)c3)C1)CC2 (centres unmarked) (as salt: HCl) [Example 12]
175 to 177 °C	COc1cc2c(cc1OC)CN(C(=O)[C@H]1CCCN(CCC(=O)Nc3ccc4c(c3)OCO4)C1)CC2 (as salt: tartrate) [Example 6, (+)-3-[(S)-3-(6,7-dimethoxy-1,2,3,4-tetrahydroisoquinoline-2-carbonyl)piperidino]-N-(3,4-methylenedioxyphenyl)propanamide D-tartrate]
113 to 116 °C	COc1ccc(C(=O)NCCN2CCCC(C(=O)N3CCc4cc(OC)c(OC)cc4C3)C2)cc1F (centres unmarked) (as salt: salt) [Example 27]
225 to 228 °C	COc1cc2c(cc1OC)C(C)(C)CN(C(=O)C1CCCN(CCC(=O)Nc3ccc4c(c3)OCO4)C1)C2 (centres unmarked) (as salt: HCl) [Example 25]
171 to 173 °C	COc1cc(NC(=O)CCN2CCCC(C(=O)N3CCc4cc(OC)c(OC)cc4C3)C2)ccc1C (centres unmarked) (as salt: HCl) [Example 15]
186 to 188 °C	COc1cc2c(cc1OC)CN(C(=O)C1CCCN(CCNC(=O)c3ccc(F)c(C(F)(F)F)c3)C1)CC2 (centres unmarked) (as salt: salt) [Example 44]
114 to 117 °C	COc1ccc(C(=O)NCCN2CCCC(C(=O)N3CCc4cc(OC)c(OC)cc4C3)C2)cc1C (centres unmarked) (as salt: salt) [Example 26]
